{
  "source": "patent US20130274174A1",
  "about": "“THERAPEUTIC COMBINATION OF DAPTOMYCIN AND PROTEIN SYNTHESIS INHIBITOR ANTIBIOTIC, AND METHODS OF USE” (priority 2011, published 2013)",
  "key": {"[1]": {"tested_on": "S. aureus and enterococci", "conditions": "Entenza et al. 2010; cited from earlier work"}, "[2]": {"tested_on": "S. aureus MW2 (NRS123)", "test": "microbe, parasite or virus in culture", "format": "cell-based, Staphylococcus aureus", "conditions": "Staphylococcus aureus", "protocol": "S. aureus strains MW2 (NARSA collection clinical MRSA isolate, NRS123) and ATCC 33591 (MRSA strain from the American Type Culture Collection) were cultured on Mueller-Hinton II cation adjusted (MHA) medium in 90×90 mm square petri dishes. MHA containing ¼ of the MIC value of TR-700, TR-705, LZD, TIA, CLI, TET, or VAN, TMP/SMX throughout the plate and a continuous linear gradient of DAP across the plate was used to passage MW2. ATCC 33591 was passaged with ¼ of the MIC of a subset of these drugs (TR-700, TMP/SMX, and VAN). A DAP-only control passage group was included for both strains. DAP gradients were created by pouring two layers of media as previously described (Bryson, V., et al. 1952. Microbial selection. Science 116:45-51; Locke, J. B., et al., 2009. Antimicrob. Agents Chemother. 53:5265-5274). Following each passage the leading edge of growth (i.e., most resistant cells) was resuspended in phosphate buffered saline (PBS) to an absorbance of 0.30 OD600 and a 100 μl aliquot containing ˜3.0×10^7 CFU (colony-forming units) was spread on to the proceeding passage plate. The starting maximal DAP concentration was 2 μg/ml and was increased in two-fold increments when the leading edge of growth surpassed the half way point on the plate. A glycerol stock was made from the total cell population for each culture condition for each passage. Thirty serial passages were completed for each treatment group."}},
  "note": "Where two headings read alike, the source gives them in different places.",
  "data": [
    {"compound": "CC1(C)S[C@@H]2[C@H](NC(=O)[C@H](N)c3ccccc3)C(=O)N2[C@H]1C(=O)O", "note": "[ampicillin]", "values": [
      {"measurement": "prevention of the emergence of daptomycin resistance", "setting": "[1]", "result": "prevented or greatly delayed selection of daptomycin-nonsusceptible mutants"}
    ]},
    {"compound": "Gentamicin", "values": [
      {"measurement": "increase of MIC in parallel to the increase in the daptomycin MIC", "setting": "[1]", "result": "two-fold"},
      {"measurement": "prevention of the emergence of daptomycin resistance", "setting": "[1]", "result": "unable to prevent the emergence of daptomycin resistance"}
    ]},
    {"compound": "CN(C)[C@@H]1C(O)=C(C(N)=O)C(=O)[C@@]2(O)C(O)=C3C(=O)c4c(O)cccc4[C@@](C)(O)[C@H]3C[C@@H]12", "note": "[TET, tetracycline]", "values": [
      {"measurement": "MIC", "setting": "[2]; NRS123, passage 0, NRS123 WT", "result": 0.5, "unit": "µg/mL"},
      {"measurement": "MIC", "setting": "[2]; NRS123, passage 5, selection group DAP", "result": 0.25, "unit": "µg/mL"},
      {"measurement": "MIC", "setting": "[2]; NRS123, passage 5, selection group DAP + CLI", "result": 0.5, "unit": "µg/mL"},
      {"measurement": "MIC", "setting": "[2]; NRS123, passage 5, selection group DAP + LZD", "result": 0.5, "unit": "µg/mL"},
      {"measurement": "MIC", "setting": "[2]; NRS123, passage 5, selection group DAP + TET", "result": 0.25, "unit": "µg/mL"},
      {"measurement": "MIC", "setting": "[2]; NRS123, passage 5, selection group DAP + TIA", "result": 0.5, "unit": "µg/mL"},
      {"measurement": "MIC", "setting": "[2]; NRS123, passage 5, selection group DAP + TMP/SMX", "result": 0.125, "unit": "µg/mL"},
      {"measurement": "MIC", "setting": "[2]; NRS123, passage 5, selection group DAP + TR-700", "result": 0.5, "unit": "µg/mL"},
      {"measurement": "MIC", "setting": "[2]; NRS123, passage 5, selection group DAP + TR-705", "result": 0.5, "unit": "µg/mL"},
      {"measurement": "MIC", "setting": "[2]; NRS123, passage 5, selection group DAP + VAN", "result": 0.25, "unit": "µg/mL"},
      {"measurement": "MIC", "setting": "[2]; NRS123, passage 10, selection group DAP", "result": 0.125, "unit": "µg/mL"},
      {"measurement": "MIC", "setting": "[2]; NRS123, passage 10, selection group DAP + CLI", "result": 0.5, "unit": "µg/mL"},
      {"measurement": "MIC", "setting": "[2]; NRS123, passage 10, selection group DAP + LZD", "result": 0.25, "unit": "µg/mL"},
      {"measurement": "MIC", "setting": "[2]; NRS123, passage 10, selection group DAP + TET", "result": 0.5, "unit": "µg/mL"},
      {"measurement": "MIC", "setting": "[2]; NRS123, passage 10, selection group DAP + TIA", "result": 0.25, "unit": "µg/mL"},
      {"measurement": "MIC", "setting": "[2]; NRS123, passage 10, selection group DAP + TMP/SMX", "result": 0.5, "unit": "µg/mL"},
      {"measurement": "MIC", "setting": "[2]; NRS123, passage 10, selection group DAP + TR-700", "result": 0.5, "unit": "µg/mL"},
      {"measurement": "MIC", "setting": "[2]; NRS123, passage 10, selection group DAP + TR-705", "result": 0.125, "unit": "µg/mL"},
      {"measurement": "MIC", "setting": "[2]; NRS123, passage 10, selection group DAP + VAN", "result": 0.25, "unit": "µg/mL"},
      {"measurement": "MIC", "setting": "[2]; NRS123, passage 15, selection group DAP", "result": 0.25, "unit": "µg/mL"},
      {"measurement": "MIC", "setting": "[2]; NRS123, passage 15, selection group DAP + CLI", "result": 0.125, "unit": "µg/mL"},
      {"measurement": "MIC", "setting": "[2]; NRS123, passage 15, selection group DAP + LZD", "result": 0.25, "unit": "µg/mL"},
      {"measurement": "MIC", "setting": "[2]; NRS123, passage 15, selection group DAP + TET", "result": 0.5, "unit": "µg/mL"},
      {"measurement": "MIC", "setting": "[2]; NRS123, passage 15, selection group DAP + TIA", "result": 0.25, "unit": "µg/mL"},
      {"measurement": "MIC", "setting": "[2]; NRS123, passage 15, selection group DAP + TMP/SMX", "result": 0.25, "unit": "µg/mL"},
      {"measurement": "MIC", "setting": "[2]; NRS123, passage 15, selection group DAP + TR-700", "result": 0.25, "unit": "µg/mL"},
      {"measurement": "MIC", "setting": "[2]; NRS123, passage 15, selection group DAP + TR-705", "result": 0.25, "unit": "µg/mL"},
      {"measurement": "MIC", "setting": "[2]; NRS123, passage 15, selection group DAP + VAN", "result": 0.25, "unit": "µg/mL"},
      {"measurement": "MIC", "setting": "[2]; NRS123, passage 20, selection group DAP", "result": 0.125, "unit": "µg/mL"},
      {"measurement": "MIC", "setting": "[2]; NRS123, passage 20, selection group DAP + CLI", "result": 0.125, "unit": "µg/mL"},
      {"measurement": "MIC", "setting": "[2]; NRS123, passage 20, selection group DAP + LZD", "result": 0.25, "unit": "µg/mL"},
      {"measurement": "MIC", "setting": "[2]; NRS123, passage 20, selection group DAP + TET", "result": 0.25, "unit": "µg/mL"},
      {"measurement": "MIC", "setting": "[2]; NRS123, passage 20, selection group DAP + TIA", "result": 0.25, "unit": "µg/mL"},
      {"measurement": "MIC", "setting": "[2]; NRS123, passage 20, selection group DAP + TMP/SMX", "result": 0.25, "unit": "µg/mL"},
      {"measurement": "MIC", "setting": "[2]; NRS123, passage 20, selection group DAP + TR-700", "result": 0.25, "unit": "µg/mL"},
      {"measurement": "MIC", "setting": "[2]; NRS123, passage 20, selection group DAP + TR-705", "result": 0.125, "unit": "µg/mL"},
      {"measurement": "MIC", "setting": "[2]; NRS123, passage 20, selection group DAP + VAN", "result": 0.25, "unit": "µg/mL"},
      {"measurement": "MIC", "setting": "[2]; NRS123, passage 25, selection group DAP", "result": 0.125, "unit": "µg/mL"},
      {"measurement": "MIC", "setting": "[2]; NRS123, passage 25, selection group DAP + CLI", "result": 0.125, "unit": "µg/mL"},
      {"measurement": "MIC", "setting": "[2]; NRS123, passage 25, selection group DAP + LZD", "result": 0.25, "unit": "µg/mL"},
      {"measurement": "MIC", "setting": "[2]; NRS123, passage 25, selection group DAP + TET", "result": 0.25, "unit": "µg/mL"},
      {"measurement": "MIC", "setting": "[2]; NRS123, passage 25, selection group DAP + TIA", "result": 0.25, "unit": "µg/mL"},
      {"measurement": "MIC", "setting": "[2]; NRS123, passage 25, selection group DAP + TMP/SMX", "result": 0.25, "unit": "µg/mL"},
      {"measurement": "MIC", "setting": "[2]; NRS123, passage 25, selection group DAP + TR-700", "result": 0.25, "unit": "µg/mL"},
      {"measurement": "MIC", "setting": "[2]; NRS123, passage 25, selection group DAP + TR-705", "result": 0.125, "unit": "µg/mL"},
      {"measurement": "MIC", "setting": "[2]; NRS123, passage 25, selection group DAP + VAN", "result": 0.25, "unit": "µg/mL"},
      {"measurement": "MIC", "setting": "[2]; NRS123, passage 30, selection group DAP", "result": 0.25, "unit": "µg/mL"},
      {"measurement": "MIC", "setting": "[2]; NRS123, passage 30, selection group DAP + CLI", "result": 0.25, "unit": "µg/mL"},
      {"measurement": "MIC", "setting": "[2]; NRS123, passage 30, selection group DAP + LZD", "result": 0.25, "unit": "µg/mL"},
      {"measurement": "MIC", "setting": "[2]; NRS123, passage 30, selection group DAP + TET", "result": 0.5, "unit": "µg/mL"},
      {"measurement": "MIC", "setting": "[2]; NRS123, passage 30, selection group DAP + TIA", "result": 0.5, "unit": "µg/mL"},
      {"measurement": "MIC", "setting": "[2]; NRS123, passage 30, selection group DAP + TMP/SMX", "result": 0.5, "unit": "µg/mL"},
      {"measurement": "MIC", "setting": "[2]; NRS123, passage 30, selection group DAP + TR-700", "result": 0.5, "unit": "µg/mL"},
      {"measurement": "MIC", "setting": "[2]; NRS123, passage 30, selection group DAP + TR-705", "result": 0.25, "unit": "µg/mL"},
      {"measurement": "MIC", "setting": "[2]; NRS123, passage 30, selection group DAP + VAN", "result": 0.5, "unit": "µg/mL"},
      {"measurement": "MIC", "setting": "[2]; NRS123, read-out: DAP MIC by the end of the experiment (selection of DAP^ns strains), MW2, passaged with DAP alone or with co-selecting agent at ¼ MIC, CLSI breakpoint", "result": "> 1", "unit": "µg/mL"}
    ]}
  ]
}
